From patent US10131652B2, “Pyrimidinyloxy benzene derivatives as herbicides” (E. I. DU PONT DE NEMOURS AND COMPANY, priority 2014, dated 2018)

Legend:
Test in all cases: Test F pre-/postemergence plant response
Format in all cases: in vivo
[1] = test system: arrowleaf sida (Sida rhombifolia); conditions: Sida rhombifolia, pre-emergence, scale 0 to 100, read-out: Plant response rating, Arrowleaf Sida
Method in brief: (§1)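 Visual control ratings were scored 0 (no effect) to 100 (complete control) versus untreated plants after 14–21 greenhouse days. Compounds, formulated in a surfactant-containing non-phytotoxic solvent, were applied both to silt loam at planting (preemergence) and to 1- to 4-leaf plants 2–18 cm tall (postemergence).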

[2] = test system: barnyardgrass (Echinochloa crus-galli); conditions: Echinochloa crus-galli, pre-emergence, scale 0 to 100, read-out: Plant response rating, Barnyardgrass
Method in brief: as §1

[3] = test system: dayflower (Virginia (VA) dayflower, Commelina virginica); conditions: Commelina virginica, pre-emergence, scale 0 to 100, read-out: Plant response rating, Dayflower, VA
Method in brief: as §1

[4] = test system: field bindweed (Convolvulus arvensis); conditions: Convolvulus arvensis, pre-emergence, scale 0 to 100, read-out: Plant response rating, Field Bindweed
Method in brief: as §1

[5] = test system: giant foxtail (Setaria faberii); conditions: Setaria faberi, pre-emergence, scale 0 to 100, read-out: Plant response rating, Foxtail, Giant
Method in brief: as §1

[6] = test system: goosegrass (Eleusine indica); conditions: Eleusine indica, pre-emergence, scale 0 to 100, read-out: Plant response rating, Goosegrass
Method in brief: as §1

[7] = test system: hairy beggarticks (Bidens pilosa); conditions: Bidens pilosa, pre-emergence, scale 0 to 100, read-out: Plant response rating, Beggarticks
Method in brief: as §1

[8] = test system: johnsongrass (Sorghum halepense); conditions: Sorghum halepense, pre-emergence, scale 0 to 100, read-out: Plant response rating, Johnsongrass
Method in brief: as §1

[9] = test system: large (Lg) crabgrass (Digitaria sanguinalis); conditions: Digitaria sanguinalis, pre-emergence, scale 0 to 100, read-out: Plant response rating, Crabgrass, Large
Method in brief: as §1

[10] = test system: sandbur (southern sandbur, Cenchrus echinatus); conditions: Cenchrus echinatus, pre-emergence, scale 0 to 100, read-out: Plant response rating, Sandbur
Method in brief: as §1

soybean (Glycine max) = conditions: Glycine max, pre-emergence, scale 0 to 100, read-out: Plant response rating, Soybean
Method in brief: as §1

[11] = test system: surinam grass (Brachiaria decumbens); conditions: Urochloa decumbens, pre-emergence, scale 0 to 100, read-out: Plant response rating, Surinam Grass
Method in brief: as §1

[12] = test system: velvetleaf (Abutilon theophrasti); conditions: Abutilon theophrasti, pre-emergence, scale 0 to 100, read-out: Plant response rating, Velvetleaf
Method in brief: as §1

[13] = test system: waterhemp (common waterhemp, Amaranthus rudis); conditions: Amaranthus tuberculatus, pre-emergence, scale 0 to 100, read-out: Plant response rating, Waterhemp
Method in brief: as §1

[14] = test system: wild poinsettia (Euphorbia heterophylla); conditions: Euphorbia heterophylla, pre-emergence, scale 0 to 100, read-out: Plant response rating, Poinsettia, Wild
Method in brief: as §1

[15] = test system: yellow nutsedge (Cyperus esculentus); conditions: Cyperus, pre-emergence, scale 0 to 100, read-out: Plant response rating, Nutsedge, Yellow
Method in brief: as §1

Fc1cccc(Oc2ncc(Cl)cn2)c1-c1cc(C(F)(F)F)on1 [Compound 168, 5-chloro-2-[2-[5-(trifluoromethyl)-3-isoxazolyl]-3-fluorophenoxy]pyrimidine]
pest or weed control at 16 g/ha ([1]; 16 g ai/ha Preemergence): 95%
pest or weed control at 31 g/ha ([1]; 31 g ai/ha Preemergence): 100%
pest or weed control at 62 g/ha ([1]; 62 g ai/ha Preemergence): 100%
pest or weed control at 125 g/ha ([1]; 125 g ai/ha Preemergence): 100%
pest or weed control at 16 g/ha ([2]; 16 g ai/ha Preemergence): 0%
pest or weed control at 31 g/ha ([2]; 31 g ai/ha Preemergence): 25%
pest or weed control at 62 g/ha ([2]; 62 g ai/ha Preemergence): 80%
pest or weed control at 125 g/ha ([2]; 125 g ai/ha Preemergence): 100%
pest or weed control at 16 g/ha ([3]; 16 g ai/ha Preemergence): 5%
pest or weed control at 31 g/ha ([3]; 31 g ai/ha Preemergence): 10%
pest or weed control at 62 g/ha ([3]; 62 g ai/ha Preemergence): 70%
pest or weed control at 125 g/ha ([3]; 125 g ai/ha Preemergence): 90%
pest or weed control at 16 g/ha ([4]; 16 g ai/ha Preemergence): 40%
pest or weed control at 31 g/ha ([4]; 31 g ai/ha Preemergence): 60%
pest or weed control at 62 g/ha ([4]; 62 g ai/ha Preemergence): 50%
pest or weed control at 125 g/ha ([4]; 125 g ai/ha Preemergence): 70%
pest or weed control at 16 g/ha ([5]; 16 g ai/ha Preemergence): 65%
pest or weed control at 31 g/ha ([5]; 31 g ai/ha Preemergence): 98%
pest or weed control at 62 g/ha ([5]; 62 g ai/ha Preemergence): 100%
pest or weed control at 125 g/ha ([5]; 125 g ai/ha Preemergence): 100%
pest or weed control at 16 g/ha ([6]; 16 g ai/ha Preemergence): 80%
pest or weed control at 31 g/ha ([6]; 31 g ai/ha Preemergence): 95%
pest or weed control at 125 g/ha ([6]; 125 g ai/ha Preemergence): 100%
pest or weed control at 62 g/ha ([6]; Preemergence): 98%
pest or weed control at 16 g/ha ([7]; 16 g ai/ha Preemergence): 0%
pest or weed control at 31 g/ha ([7]; 31 g ai/ha Preemergence): 0%
pest or weed control at 62 g/ha ([7]; 62 g ai/ha Preemergence): 0%
pest or weed control at 125 g/ha ([7]; 125 g ai/ha Preemergence): 0%
pest or weed control at 16 g/ha ([8]; 16 g ai/ha Preemergence): 0%
pest or weed control at 31 g/ha ([8]; 31 g ai/ha Preemergence): 30%
pest or weed control at 125 g/ha ([8]; 125 g ai/ha Preemergence): 100%
pest or weed control at 62 g/ha ([8]; Preemergence): 35%
pest or weed control at 16 g/ha ([9]; 16 g ai/ha Preemergence): 65%
pest or weed control at 31 g/ha ([9]; 31 g ai/ha Preemergence): 95%
pest or weed control at 62 g/ha ([9]; 62 g ai/ha Preemergence): 98%
pest or weed control at 125 g/ha ([9]; 125 g ai/ha Preemergence): 100%
pest or weed control at 16 g/ha ([10]; 16 g ai/ha Preemergence): 10%
pest or weed control at 31 g/ha ([10]; 31 g ai/ha Preemergence): 30%
pest or weed control at 125 g/ha ([10]; 125 g ai/ha Preemergence): 90%
pest or weed control at 62 g/ha ([10]; Preemergence): 65%
plant injury at 16 g/ha (soybean (Glycine max); 16 g ai/ha Preemergence): 0%
plant injury at 31 g/ha (soybean (Glycine max); 31 g ai/ha Preemergence): 0%
plant injury at 125 g/ha (soybean (Glycine max); 125 g ai/ha Preemergence): 40%
plant injury at 62 g/ha (soybean (Glycine max); Preemergence): 20%
pest or weed control at 16 g/ha ([11]; 16 g ai/ha Preemergence): 50%
pest or weed control at 31 g/ha ([11]; 31 g ai/ha Preemergence): 65%
pest or weed control at 125 g/ha ([11]; 125 g ai/ha Preemergence): 100%
pest or weed control at 62 g/ha ([11]; Preemergence): 70%
pest or weed control at 16 g/ha ([12]; 16 g ai/ha Preemergence): 35%
pest or weed control at 31 g/ha ([12]; 31 g ai/ha Preemergence): 75%
pest or weed control at 125 g/ha ([12]; 125 g ai/ha Preemergence): 100%
pest or weed control at 62 g/ha ([12]; Preemergence): 100%
pest or weed control at 16 g/ha ([13]; 16 g ai/ha Preemergence): 100%
pest or weed control at 31 g/ha ([13]; 31 g ai/ha Preemergence): 100%
pest or weed control at 125 g/ha ([13]; 125 g ai/ha Preemergence): 100%
pest or weed control at 62 g/ha ([13]; Preemergence): 100%
pest or weed control at 16 g/ha ([14]; 16 g ai/ha Preemergence): 0%
pest or weed control at 31 g/ha ([14]; 31 g ai/ha Preemergence): 0%
pest or weed control at 125 g/ha ([14]; 125 g ai/ha Preemergence): 90%
pest or weed control at 62 g/ha ([14]; Preemergence): 50%
pest or weed control at 16 g/ha ([15]; 16 g ai/ha Preemergence): 0%
pest or weed control at 31 g/ha ([15]; 31 g ai/ha Preemergence): 0%
pest or weed control at 125 g/ha ([15]; 125 g ai/ha Preemergence): 20%
pest or weed control at 62 g/ha ([15]; Preemergence): 0%
